The record followed here is patent US5441894A, “Device containing a light absorbing element for automated chemiluminescent immunoassays” (Abbott Laboratories, priority 1993, dated 1995).

In the assay the test system is Anti-phencyclidine antibodies. Description: Ion-Capture Competitive Binding Assay For Phencyclidine (PCP) in Urine.

`c1ccc(C2(N3CCCCC3)CCCCC2)cc1` [PCP, phencyclidine]: the “% Bound” value is recorded as 83.00% (25 ng/mL PCP in urine, Side A); 85.50% (25 ng/mL PCP in urine, Side B); 94.60% (60 ng/mL PCP in urine, Side A); 94.19% (60 ng/mL PCP in urine, Side B); 97.44% (120 ng/mL PCP in urine, Side A); 97.54% (120 ng/mL PCP in urine, Side B). Further, the “% Bound” value is, setting by setting: (250 ng/mL PCP in urine, Side A) 99.28%; (250 ng/mL PCP in urine, Side B) 99.32%; (500 ng/mL PCP in urine, Side A) 100.00%; (500 ng/mL PCP in urine, Side B) 100.00%.
